Data reported in publication PMC3813752 (PLoS ONE, 2013).
Where two headings read alike, the source gives them in different places.

Experiments:
human GPR18 [1] = molecular target: T1, human GPR18 (Homo sapiens, UniProt Q14330); conditions: for agonist effect on β-arrestin recruitment at GPR18: test compound 10 µM, related to effect of Δ9-THC 10 µM = 100%; for functional property at GPR18 (agonist/antagonist): in words
T1 sequence (Q14330 1-331): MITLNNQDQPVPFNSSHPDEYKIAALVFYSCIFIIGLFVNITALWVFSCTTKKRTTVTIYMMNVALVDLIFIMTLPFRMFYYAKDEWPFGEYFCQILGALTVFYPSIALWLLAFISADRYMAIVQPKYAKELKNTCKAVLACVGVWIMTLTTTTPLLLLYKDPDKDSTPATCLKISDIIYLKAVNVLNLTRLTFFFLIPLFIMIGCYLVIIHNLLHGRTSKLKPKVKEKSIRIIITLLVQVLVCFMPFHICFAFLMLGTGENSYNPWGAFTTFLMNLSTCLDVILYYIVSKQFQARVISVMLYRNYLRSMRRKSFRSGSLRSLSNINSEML

human CB1 receptor = human CB1 receptor (Homo sapiens, UniProt P21554); assay: biochemical; assay type: binding; conditions: for Ki: membranes of CHO cells expressing human CB1, three independent experiments in duplicates, read-out: Ki CB1, heterologous competition vs. [3H]CP55,940; for inhibition at 10 µM: vs. [3H]CP55,940, read-out: % inhibition of radioligand binding at CB1
human GPR18 [2] = molecular target: T1, human GPR18; assay: cell-based; conditions: for inhibition at 10 µM: CHO, read-out: % inhibition of Δ9-THC (10 µM)-induced β-arrestin recruitment at GPR18, test compound at 10 µM; for IC50: GPR18 IC50, β-arrestin recruitment, antagonist mode vs. Δ9-THC (10 µM)
human CB2 receptor [3] = molecular target: T2, human CB2 receptor (Homo sapiens, UniProt P34972); assay: Radioligand binding (heterologous competition) vs. [3H]CP55,940 at CB2; conditions: for inhibition at 10 µM: read-out: % inhibition of radioligand binding at CB2
human GPR55 = human GPR55 (Homo sapiens, UniProt Q9Y2T6); assay: β-arrestin recruitment assay (PathHunter), CHO cells expressing GPR55; conditions: for inhibition at 10 µM: CHO; for IC50: antagonist mode vs. LPI (1 µM); for agonist effect on β-arrestin recruitment at GPR55: test compound 10 µM, related to effect of LPI 1 µM = 100%; for functional property at GPR55 (agonist/antagonist): in words
human CB2 receptor [4] = molecular target: T2, human CB2 receptor; assay: cAMP accumulation assay, CHO cells expressing CB2; assay type: cell-based; conditions: in words; standard ligands partly from the literature
[5] = membranes of CHO cells expressing human CB2, three independent experiments in duplicates, read-out: Ki CB2, heterologous competition vs. [3H]CP55,940
[6] = read-out: % inhibition of LPI (1 µM)-induced β-arrestin recruitment at GPR55, test compound at 10 µM
[7] = GPR55 IC50, β-arrestin recruitment
[8] = read-out: % inhibition of LPI (1 µM)-induced β-arrestin recruitment at GPR55
[9] = Ki CB2, heterologous competition vs. [3H]CP55,940, membranes of CHO cells expressing human CB2, three independent experiments in duplicates

human CB1 receptor, sequence (P21554 whole entry): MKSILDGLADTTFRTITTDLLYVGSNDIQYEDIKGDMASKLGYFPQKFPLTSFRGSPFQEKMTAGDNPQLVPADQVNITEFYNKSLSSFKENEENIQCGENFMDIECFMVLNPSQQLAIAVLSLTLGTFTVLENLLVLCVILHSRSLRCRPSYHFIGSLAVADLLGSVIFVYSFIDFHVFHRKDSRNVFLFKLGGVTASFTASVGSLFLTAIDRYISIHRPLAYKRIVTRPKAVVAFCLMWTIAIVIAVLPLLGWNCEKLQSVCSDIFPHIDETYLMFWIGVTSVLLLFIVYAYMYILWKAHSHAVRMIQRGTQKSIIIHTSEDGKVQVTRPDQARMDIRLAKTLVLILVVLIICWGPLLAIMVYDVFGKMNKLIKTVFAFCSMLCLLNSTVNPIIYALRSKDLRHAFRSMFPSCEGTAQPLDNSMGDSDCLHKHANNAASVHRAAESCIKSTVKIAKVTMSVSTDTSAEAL
T2 sequence (P34972 whole entry): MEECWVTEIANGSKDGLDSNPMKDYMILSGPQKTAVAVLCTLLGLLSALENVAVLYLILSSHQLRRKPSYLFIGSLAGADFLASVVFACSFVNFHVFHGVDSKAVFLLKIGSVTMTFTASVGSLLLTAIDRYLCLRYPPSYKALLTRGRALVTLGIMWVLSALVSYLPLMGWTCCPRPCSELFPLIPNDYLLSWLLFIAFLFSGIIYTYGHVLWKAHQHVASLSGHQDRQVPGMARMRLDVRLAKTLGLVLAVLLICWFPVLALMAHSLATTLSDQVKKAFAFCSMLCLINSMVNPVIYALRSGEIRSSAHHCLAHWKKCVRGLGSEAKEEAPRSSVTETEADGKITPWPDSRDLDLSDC
human GPR55, sequence (Q9Y2T6 whole entry): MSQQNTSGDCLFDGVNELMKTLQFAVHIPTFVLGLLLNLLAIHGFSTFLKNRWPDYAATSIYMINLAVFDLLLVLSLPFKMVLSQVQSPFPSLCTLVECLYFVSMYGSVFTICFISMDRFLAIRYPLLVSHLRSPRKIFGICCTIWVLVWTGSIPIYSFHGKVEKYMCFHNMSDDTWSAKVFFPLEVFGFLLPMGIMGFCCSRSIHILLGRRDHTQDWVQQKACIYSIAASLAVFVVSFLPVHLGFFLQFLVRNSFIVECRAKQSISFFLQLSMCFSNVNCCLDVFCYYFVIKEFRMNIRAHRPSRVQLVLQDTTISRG

SMILES | agonist effect on β-arrestin recruitment at GPR18 (human GPR18 [1]) [%] | Ki (human CB1 receptor) [µM] | EC50 (human GPR18 [2]) [µM] | inhibition at 10 µM (human GPR18 [2]) [%] | IC50 (human GPR18 [2]) [µM] | Ki (human CB2 receptor [3]; [5]) [µM] | EC50 (human GPR55) [µM] | inhibition at 10 µM (human GPR55; [6]) [%] | IC50 (human GPR55; [7]) [µM] | agonist effect on β-arrestin recruitment at GPR55 (human GPR55) [%] | inhibition at 10 µM (human CB1 receptor) [%] | further results
CCCCc1ccc(O)c(-c2cc(CC)ccc2O)c1 [Compound 55] | 0 | 5.76 ± 2.85 | > 10 | 40 | ~10 | 0.235 ± 0.101 | > 10 | 18 | > 10 | 2 | – | selectivity for CB2 receptors over CB1 (human CB2 receptor [3]; from Ki values): ~25 fold
CCCCc1ccc(O)c(-c2ccccc2O)c1 [Compound 47] | 0 | ~1 | > 10 | 24 | > 10 | 2.03 ± 0.88 | > 10 | 35 | > 10 | 2 | 40 | –
CCCc1ccc(O)c(-c2ccccc2O)c1 [Compound 46] | 0 | – | > 10 | 0 | > 10 | – | > 10 | 37 | > 10 | 25 | 45 | inhibition at 10 µM (human CB2 receptor [3]; at 10 µM, vs. [3H]CP55,940): 49%; Ki (human CB2 receptor [3]; vs. [3H]CP55,940, read-out: Ki CB2): ~10 µM
CCCCCc1cc(O)c2c(c1)OC(C)(C)[C@@H]1CCC(C)=C[C@@H]21 [Compound 1, Δ^9-tetrahydrocannabinol, reference compound] | – | – | – | 0 | > 10 | – | > 10 | – | – | 0 | – | functional property at GPR18 (agonist/antagonist) (human GPR18 [1]): agonist; EC50 (human GPR18 [1]; read-out: GPR18 EC50, β-arrestin recruitment, agonist mode): 4.61 ± 0.5 µM; functional property at CB2 (agonist/antagonist) (human CB2 receptor [4]): agonist; inhibition at 10 µM (human GPR55; [8]): 65%; functional property at GPR55 (agonist/antagonist) (human GPR55): antagonist; IC50 (human GPR55; read-out: GPR55 IC50, β-arrestin recruitment): 14.2 ± 5.4 µM
Cc1ccc(O)c(-c2cc(C)ccc2O)c1 [Compound 41] | 20 | > 1 | > 10 | 0 | > 10 | > 1 | > 10 | 0 | > 10 | 30 | 23 | Ki (human CB2 receptor [3]; [9]): > 0.01 µM; inhibition at 10 µM (human CB2 receptor [3]; at 10 µM, vs. [3H]CP55,940): 30%
CCCc1ccc(O)c(-c2cc(C(C)(C)C)ccc2O)c1 [Compound 59] | 0 | 5.81 ± 2.67 | > 10 | 54 | ~10 | 0.489 ± 0.049 | > 10 | 54 | ~10 | 0 | – | –
CCCCCc1ccc(O)c(-c2cc(C)ccc2O)c1 [Compound 52] | 0 | 1.23 ± 0.47 | > 10 | 45 | ~10 | 0.517 ± 0.101 | > 10 | 0 | > 10 | 9 | – | –
CCCCCCc1ccc(O)c(-c2cc(CCCCCC)ccc2O)c1 [Compound 45] | 0 | 4.64 ± 0.58 | > 10 | 127 | 11.7 ± 2.8 | 1.83 ± 0.19 | > 10 | 0 | > 10 | 0 | – | –
C=CCc1ccc(O)c(-c2ccc(O)c(CC=C)c2)c1 [Compound 10, honokiol, reference compound] | 0 | – | > 10 | 45 | ~10 | – | > 10 | – | ~10 | 27 | – | inhibition at 10 µM (human GPR55; [8]): 42%
CCCCc1ccc(O)c(-c2cc(C)ccc2O)c1 [Compound 51] | 0 | ~1 | > 10 | 44 | ~10 | 1.69 ± 0.53 | > 10 | 0 | > 10 | 18 | 44 | –
CCCCCCc1ccc(O)c(-c2ccccc2O)c1 [Compound 49] | 0 | 6.63 ± 5.03 | > 10 | 48 | ~10 | 1.5 ± 0.64 | > 10 | 34 | > 10 | 39 | – | –
Cc1c(C(=O)NN2CCCCC2)nn(-c2ccc(Cl)cc2Cl)c1-c1ccc(Cl)cc1 [Compound 5, rimonabant, reference compound] | 0 | – | > 10 | 94 | – | – | – | – | > 10 | – | – | functional property at GPR18 (agonist/antagonist) (human GPR18 [1]): antagonist; IC50 (human GPR18 [1]; read-out: GPR18 IC50, β-arrestin recruitment, antagonist mode vs. Δ9-THC (10 µM)): 10.1 ± 1.3 µM; functional property at CB2 (agonist/antagonist) (human CB2 receptor [4]): antagonist; inhibition at 10 µM (human GPR55; [8]): 0%; functional property at GPR55 (agonist/antagonist) (human GPR55): agonist; EC50 (human GPR55; read-out: GPR55 EC50, β-arrestin recruitment, agonist mode): 2.01 ± 0.66 µM
CCCc1ccc(O)c(-c2cc(CC)ccc2O)c1 [Compound 54] | 0 | ~1 | > 10 | 67 | 10.5 ± 0.9 | 0.856 ± 0.367 | > 10 | 19 | > 10 | 0 | 43 | –
CCCCCCc1ccc(O)c(-c2cc(C)ccc2O)c1 [Compound 53] | 0 | 0.822 ± 0.224 | > 10 | 118 | 11.5 ± 1.3 | 0.273 ± 0.096 | > 10 | 0 | > 10 | 28 | – | –
Oc1ccccc1-c1ccccc1O [Compound 40, 2-(2-hydroxyphenyl)phenol] | – | > 1 | – | – | – | – | – | – | – | – | 11 | Ki (human CB2 receptor [3]; [9]): > 1 µM; inhibition at 10 µM (human CB2 receptor [3]): 0%
CCCCCc1ccc(O)c(-c2cc(CC)ccc2O)c1 [Compound 56] | 0 | 0.634 ± 0.297 | > 10 | 95 | 13.6 ± 0.7 | 0.161 ± 0.033 | > 10 | 2 | > 10 | 3 | – | –
CCCCc1ccc(O)c(-c2cc(CCC)ccc2O)c1 [Compound 58] | 0 | 3.61 ± 0.17 | > 10 | 104 | 13.5 ± 1.7 | 0.468 ± 0.133 | > 10 | 44 | ~10 | 21 | – | –
CCCc1ccc(O)c(-c2cc(C)ccc2O)c1 [Compound 50] | 0 | > 1 | > 10 | 21 | > 10 | – | > 10 | 4 | > 10 | 26 | 20 | Ki (human CB2 receptor [3]; [9]): 7.38 ± 2.76 µM
CCCCCc1ccc(O)c(-c2ccccc2O)c1 [Compound 48] | 0 | 6.59 ± 2.56 | > 10 | 18 | > 10 | 1.16 ± 0.29 | ~10 | 25 | > 10 | 42 | – | –
CCc1ccc(O)c(-c2cc(CC)ccc2O)c1 [Compound 42] | 6 | 2.13 ± 0.84 | > 10 | 12 | > 10 | 2.87 ± 0.77 | > 10 | 0 | > 10 | 23 | – | –
CCCCCCc1ccc(O)c(-c2cc(CC)ccc2O)c1 [Compound 57] | 0 | 0.386 ± 0.029 | > 10 | 113 | 12.5 ± 0.8 | – | > 10 | 0 | > 10 | – | – | Ki (human CB2 receptor [3]; [9]): 0.083 ± 0.0118 µM
